23 compounds from US12612424B2, “HPK1 inhibitors and uses thereof” (Regor Pharmaceuticals, Inc., priority 2019, dated 2026) can be followed below.

Like-named read-outs stand apart in the source and are kept apart here.

One experiment has as its target HPK1 (Homo sapiens, UniProt Q92918). As to the kind of experiment: HPK1 biochemical assay (ADP-GLO Kinase Assay). In a few lines:
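HPK1 (0.6 ng/μL final) activity was followed with MBP substrate and 10 μM ATP in Tris pH 7.5/MgCl2/BSA/DTT buffer, measured by ADP-Glo luminescence. Compounds were tested as 3-fold dilutions from 10 μM. IC50 came from a three-parameter logistic fit, with inhibition normalised to high/low controls.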
In general terms: ADP-Glo turns the ADP formed in a reaction into a luminescent signal.

For another experiment, the target named is T1, JAK3 (Homo sapiens, UniProt P52333).
T1 construct: purchased Thermo fisher PV3855
Description: JAK3 biochemical assay (ADP-GLO Kinase Assay). To be noted: for JAKs/HPK1 IC50 Ratio, B*: first testing facility. In a few lines:
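Human JAK3 (0.78 ng) with 0.2 μg/μL Poly(E4Y1) and 4 μM ATP in 40 mM Tris pH 7.5, 20 mM MgCl2, 0.1 mg/ml BSA, 50 μM DTT, 1% DMSO; 60 min at 25 °C. ADP formed read by ADP-Glo luminescence. 10-dose 3-fold series from 10 μM; IC50 by three-parameter logistic fit.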

[1] abbreviates: B*: testing performed in a first testing facility, read-out: HPK1 IC50 (nM) Relative, B*.
The mark [2] stands for this setting: B*: testing performed in a first testing facility, read-out: JAK3 IC50 (nM) Relative, B*.
The mark [3] stands for this setting: ratio of JAK3 IC50 to HPK1 IC50.

T1 sequence (P52333 781-1124 limits assumed): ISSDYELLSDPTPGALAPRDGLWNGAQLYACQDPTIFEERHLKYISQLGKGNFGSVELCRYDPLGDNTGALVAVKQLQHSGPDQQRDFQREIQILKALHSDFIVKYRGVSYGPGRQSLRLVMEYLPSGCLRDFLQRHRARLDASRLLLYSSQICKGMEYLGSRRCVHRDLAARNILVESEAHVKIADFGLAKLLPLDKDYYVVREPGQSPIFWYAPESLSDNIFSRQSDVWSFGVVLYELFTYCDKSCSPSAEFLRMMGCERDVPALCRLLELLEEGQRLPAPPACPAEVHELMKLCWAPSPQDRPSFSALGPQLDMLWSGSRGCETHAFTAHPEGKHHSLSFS
Chain of HPK1 (Q92918 whole entry): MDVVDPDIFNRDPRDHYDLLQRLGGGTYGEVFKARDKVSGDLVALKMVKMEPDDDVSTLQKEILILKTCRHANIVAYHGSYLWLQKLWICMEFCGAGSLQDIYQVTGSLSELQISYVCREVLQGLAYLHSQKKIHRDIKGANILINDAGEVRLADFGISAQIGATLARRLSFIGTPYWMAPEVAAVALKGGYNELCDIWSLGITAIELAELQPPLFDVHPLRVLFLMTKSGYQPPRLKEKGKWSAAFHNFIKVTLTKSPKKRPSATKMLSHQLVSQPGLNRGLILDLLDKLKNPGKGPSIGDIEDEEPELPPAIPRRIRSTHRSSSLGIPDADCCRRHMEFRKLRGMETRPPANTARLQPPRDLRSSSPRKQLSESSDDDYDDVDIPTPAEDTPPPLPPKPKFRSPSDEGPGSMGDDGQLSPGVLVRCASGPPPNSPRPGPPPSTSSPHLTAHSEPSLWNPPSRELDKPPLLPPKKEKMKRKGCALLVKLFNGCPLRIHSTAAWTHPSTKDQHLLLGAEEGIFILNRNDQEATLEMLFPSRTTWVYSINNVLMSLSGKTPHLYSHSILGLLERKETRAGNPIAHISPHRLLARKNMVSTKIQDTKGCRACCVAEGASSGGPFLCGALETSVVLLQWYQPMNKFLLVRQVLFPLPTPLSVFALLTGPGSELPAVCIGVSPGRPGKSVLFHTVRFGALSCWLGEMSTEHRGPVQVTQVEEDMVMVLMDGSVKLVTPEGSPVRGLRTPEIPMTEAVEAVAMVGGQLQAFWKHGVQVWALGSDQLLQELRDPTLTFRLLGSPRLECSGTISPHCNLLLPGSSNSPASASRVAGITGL

A word on the IC50: it is the concentration needed to halve the response being measured. In the case of `COc1cc2c(cc1Nc1ncc(Cl)c(-n3cc(CC(=O)O)c4ccccc43)n1)CN(C)CC2` [Example 129], the results for the IC50 at HPK1 (setting [1]) and at JAK3 (setting [2]) were at most 100 nM and 500 to 1000 nM, respectively. Besides, on JAK3 (setting [3]), the “JAKs/HPK1 IC50 Ratio, B*” value is reported as 640.
Turning to `COc1cc2c(cc1Nc1ncc(Cl)c(-n3cc(S(N)(=O)=O)c4ccccc43)n1)CN(C)CC2` [Example 83, 1-(5-Chloro-2-((6-methoxy-2-methyl-1,2,3,4-tetrahydroisoquinolin-7-yl)amino)pyrimidin-4-yl)-1H-indole-3-sulfonamide], the figures for the IC50 on HPK1 (setting [1]) and at JAK3 (setting [2]) were at most 100 nM and above 1000 nM, respectively. Also, the “JAKs/HPK1 IC50 Ratio, B*” value at JAK3 (setting [3]) was determined as 232.
Take `COC(=O)C1CN(c2nc(Nc3cc4c(cc3OC)CCN(C)C4)ncc2Cl)c2ccccc21` (centres unmarked) [Example 115, Methyl 1-(5-chloro-2-((6-methoxy-2-methyl-1,2,3,4-tetrahydroisoquinolin-7-yl)amino)pyrimidin-4-yl)indoline-3-carboxylate]: the IC50 on HPK1 (setting [1]) was at most 100 nM; on JAK3 (setting [2]) it was above 1000 nM. Besides, the “JAKs/HPK1 IC50 Ratio, B*” value on JAK3 (setting [3]) was 1275.
With `COc1cc2c(cc1Nc1ncc(Cl)c(N3CC(C)(CC(=O)O)c4ccccc43)n1)CN(C(C)C)CC2` (centres unmarked) [Example 158, 2-(1-(5-Chloro-2-((2-isopropyl-6-methoxy-1,2,3,4-tetrahydroisoquinolin-7-yl)amino)pyrimidin-4-yl)-3-methylindolin-3-yl)acetic acid], the IC50 at HPK1 (setting [1]) is at most 100 nM; at JAK3 (setting [2]), 100 to 500 nM. The “JAKs/HPK1 IC50 Ratio, B*” value on JAK3 (setting [3]) was 192.
Take `COc1cc2c(cc1Nc1ncc(Cl)c(N3CC(C)(CC(=O)O)c4ccccc43)n1)CNCC2` (centres unmarked) [Example 160, 2-(1-(5-Chloro-2-((6-methoxy-1,2,3,4-tetrahydroisoquinolin-7-yl)amino)pyrimidin-4-yl)-3-methylindolin-3-yl)acetic acid methanesulfonic acid]: the IC50 at HPK1 (setting [1]) and at JAK3 (setting [2]) was at most 100 nM throughout. Also, on JAK3 (setting [3]), the “JAKs/HPK1 IC50 Ratio, B*” value is on record as 97.
Turning to `COc1cc2c(cc1Nc1ncc(Cl)c(-n3cc(CC(=O)O)c4cc(F)ccc43)n1)CN(C)CC2` [Example 138], the IC50 at HPK1 (setting [1]) was at most 100 nM; on JAK3 (setting [2]), 100 to 500 nM. Also, the “JAKs/HPK1 IC50 Ratio, B*” value on JAK3 (setting [3]) is listed as 382.
Regarding `CN1CCc2cc(Cl)c(Nc3ncc(Cl)c(N4CCc5ccccc54)n3)cc2C1` [Example 15, 6-Chloro-N-(5-chloro-4-(indolin-1-yl)pyrimidin-2-yl)-2-methyl-1,2,3,4-tetrahydroisoquinolin-7-amine], the IC50 was at most 100 nM at HPK1 (setting [1]) and above 1000 nM at JAK3 (setting [2]). In addition, the “JAKs/HPK1 IC50 Ratio, B*” value on JAK3 (setting [3]) was 174.
With `COc1cc2c(cc1Nc1ncc(Cl)c(N3CCc4ccccc43)n1)CN(C)CC2` [Example 4, N-(5-Chloro-4-(indolin-1-yl)pyrimidin-2-yl)-6-methoxy-2-methyl-1,2,3,4-tetrahydroisoquinolin-7-amine], the IC50 was at most 100 nM at HPK1 (setting [1]); at most 100 nM on HPK1 (N*: testing performed in a second testing facility, read-out: HPK1 IC50 (nM) Relative, N*); above 1000 nM on JAK3 (setting [2]); 100 to 500 nM at JAK3 (N*: testing performed in a second testing facility, read-out: JAK3 IC50 (nM) Relative, N*). Moreover, the “JAKs/HPK1 IC50 Ratio, B*” value on JAK3 (setting [3]) turned out to be 337. For the same compound, the “JAKs/HPK1 IC50 Ratio, N*” value at JAK3 (ratio of JAK3 IC50 to HPK1 IC50, second testing facility) stood at 601.
As to `COc1cc2c(cc1Nc1ncc(Cl)c(N3CC(C)(CC(=O)O)c4ccc(F)cc43)n1)CN(C)CC2` (single isomer, unassigned) [Example 152], the IC50 is at most 100 nM at HPK1 (setting [1]) and 100 to 500 nM on JAK3 (setting [2]). Further, the “JAKs/HPK1 IC50 Ratio, B*” value on JAK3 (setting [3]) was found to be 253.
Consider `COc1cc2c(cc1Nc1ncc(Cl)c(-n3nc(CC(=O)O)c4ccccc43)n1)CN(C)CC2` [Example 141], for which the IC50 is at most 100 nM at HPK1 (setting [1]) and above 1000 nM at JAK3 (setting [2]). In addition, the “JAKs/HPK1 IC50 Ratio, B*” value on JAK3 (setting [3]) is 541.
For the compound `COc1cc2c(cc1Nc1ncc(Cl)c(N3CC(C)(CC(=O)O)c4ccccc43)n1)CN(C)CC2` (centres unmarked) [Example 146], the IC50 on HPK1 (setting [1]) and on JAK3 (setting [2]) was at most 100 nM throughout. For the same compound, the “JAKs/HPK1 IC50 Ratio, B*” value on JAK3 (setting [3]) amounted to 90.
Take `COc1cc2c(cc1Nc1ncc(Cl)c(N3CC(C(=O)O)c4ccccc43)n1)CN(C)CC2` (single isomer, unassigned) [Example 96]: the IC50 on HPK1 (setting [1]) and on JAK3 (setting [2]) was at most 100 nM throughout. The “JAKs/HPK1 IC50 Ratio, B*” value at JAK3 (setting [3]) came to 80.
With `COc1cc2c(cc1Nc1ncc(Cl)c(N3CC(C#N)c4ccccc43)n1)CN(C)CC2` (centres unmarked) [Example 99, 1-(5-Chloro-2-((6-methoxy-2-methyl-1,2,3,4-tetrahydroisoquinolin-7-yl)amino)pyrimidin-4-yl)indoline-3-carbonitrile], the IC50 at HPK1 (setting [1]) and on JAK3 (setting [2]) was at most 100 nM each time. The “JAKs/HPK1 IC50 Ratio, B*” value on JAK3 (setting [3]) is given as 100.
For `COc1cc2c(cc1Nc1ncc(Cl)c(-n3nc(C(=O)O)c4ccccc43)n1)CN(C)CC2` [Example 113], the IC50 at HPK1 (setting [1]) is at most 100 nM; on JAK3 (setting [2]), above 1000 nM. For the same compound, the “JAKs/HPK1 IC50 Ratio, B*” value at JAK3 (setting [3]) is 293.
With `COc1cc2c(cc1Nc1ncc(Cl)c(-n3cc(CC(N)=O)c4ccccc43)n1)CN(C)CC2` [Example 133], the IC50 at HPK1 (setting [1]) was at most 100 nM; on JAK3 (setting [2]) it was above 1000 nM. In addition, at JAK3 (setting [3]), the “JAKs/HPK1 IC50 Ratio, B*” value is given as 870.
As to `COc1cc2c(cc1Nc1ncc(Cl)c(N3CC(C)(C(=O)O)c4ccc(F)cc43)n1)CN(C)CC2` (centres unmarked) [Example 126], the IC50 at HPK1 (setting [1]) and at JAK3 (setting [2]) was at most 100 nM throughout. Further, at JAK3 (setting [3]), the “JAKs/HPK1 IC50 Ratio, B*” value turned out to be 9.
On to `COc1cc2c(cc1Nc1ncc(Cl)c(-n3cc(CC(=O)OC(C)C)c4ccccc43)n1)CN(C)CC2` [Example 130, Isopropyl 2-(1-(5-chloro-2-((6-methoxy-2-methyl-1,2,3,4-tetrahydroisoquinolin-7-yl)amino)pyrimidin-4-yl)-1H-indol-3-yl)acetate], for which the IC50 at HPK1 (setting [1]) was at most 100 nM; on JAK3 (setting [2]), above 1000 nM. At JAK3 (setting [3]), the “JAKs/HPK1 IC50 Ratio, B*” value is recorded as above 243.
Consider `COc1cc2c(cc1Nc1ncc(Cl)c(N3CCc4cc(Cl)ccc43)n1)CN(C)CC2` [Example 13, N-(5-chloro-4-(5-chloroindolin-1-yl)pyrimidin-2-yl)-6-methoxy-2-methyl-1,2,3,4-tetrahydroisoquinolin-7-amine], for which the IC50 at HPK1 (setting [1]) is at most 100 nM; on JAK3 (setting [2]) it was 500 to 1000 nM. For the same compound, the “JAKs/HPK1 IC50 Ratio, B*” value at JAK3 (setting [3]) was 62.
Consider `COc1cc2c(cc1Nc1ncc3cc(C#N)n(-c4ccccc4)c3n1)CN(C)CC2` [Example 164, 2-((6-Methoxy-2-methyl-1,2,3,4-tetrahydroisoquinolin-7-yl)amino)-7-phenyl-7H-pyrrolo[2,3-d]pyrimidine-6-carbonitrile], for which the IC50 on HPK1 (setting [1]) was at most 100 nM; on JAK3 (setting [2]), 500 to 1000 nM. Besides, the “JAKs/HPK1 IC50 Ratio, B*” value on JAK3 (setting [3]) was found to be 306.
The matching figures for `COc1cc2c(cc1Nc1nccc(N3CC(C(=O)O)c4ccccc43)n1)CN(C)CC2` (centres unmarked) [Example 163, 1-(2-((6-Methoxy-2-methyl-1,2,3,4-tetrahydroisoquinolin-7-yl)amino)pyrimidin-4-yl)indoline-3-carboxylic acid]: at most 100 nM, above 1000 nM and 456.
In the case of `COc1cc2c(cc1Nc1ncc(Cl)c(N3CC(C)(C(N)=O)c4ccccc43)n1)CN(C)CC2` (centres unmarked) [Example 120, 1-(5-Chloro-2-((6-methoxy-2-methyl-1,2,3,4-tetrahydroisoquinolin-7-yl)amino)pyrimidin-4-yl)-3-methylindoline-3-carboxamide], the IC50 on HPK1 (setting [1]) and at JAK3 (setting [2]) was at most 100 nM each time. The “JAKs/HPK1 IC50 Ratio, B*” value at JAK3 (setting [3]) was 120.
`COc1cc2c(cc1Nc1ncc(Cl)c(N3CCc4ncccc43)n1)CN(C)CC2` [Example 16, N-(5-chloro-4-(2,3-dihydro-1H-pyrrolo[3,2-b]pyridin-1-yl)pyrimidin-2-yl)-6-methoxy-2-methyl-1,2,3,4-tetrahydroisoquinolin-7-amine]: the results for the IC50 at HPK1 (setting [1]) and at JAK3 (setting [2]) were at most 100 nM and above 1000 nM, respectively.
Take `CN1CCc2cc(F)c(Nc3ncc(Cl)c(N4CC(C)(CC(=O)O)c5ccccc54)n3)cc2C1` (centres unmarked) [Example 156]: the IC50 on HPK1 (setting [1]) and at JAK3 (setting [2]) was at most 100 nM throughout. Further, the “JAKs/HPK1 IC50 Ratio, B*” value at JAK3 (setting [3]) was found to be 29.
